Experimental data: US8143259B2, “Cold menthol receptor antagonists” (Janssen Pharmaceutica, NV, priority 2008, dated 2012)
Where “and” joins values, the source holds several entries; their conditions need not be identical. Equal entries are not always repeated.

Key:
canine TRPM8 = molecular target: T1, canine TRPM8 (Canis lupus familiaris, UniProt Q1A7N1); assay: In Vitro Canine TRPM8 Functional Assay (Ca2+ fluorescence, icilin activation); assay type: cell-based; conditions: for % Inh @ 0.5 μM: 0.5 μM compound; for IC50: HEK293 cells stably expressing canine TRPM8, icilin activation, Ca2+ fluorescence; for inhibition at 0.5 µM: HEK293, 0.5 μM compound
T1 construct: expressed in transfected cells
Method in brief: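 HEK293 cells stably expressing canine TRPM8, loaded with Calcium 3 dye; compounds added 5 min before icilin at a concentration giving ~80% maximal response. Peak icilin-evoked Ca2+ fluorescence, basal-subtracted and normalised to maximal response, fitted by sigmoidal nonlinear regression; quadruplicate wells.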

[1] = test system: icilin-induced “wet-dog” shakes; assay: Reversal of Icilin-Induced Behaviors in Rats; assay type: in vivo; conditions: percent inhibition (reversal) of wet-dog shakes, rat, 30 mg/kg P.O., 20′ post-icilin
Description: (§1) Similar shaking or jumping behavior was also evident in mice, rabbits, cats, dogs and monkeys. In humans, icilin produced a sensation of coolness on contact with mucous membranes, cold prickling when 0.1 mg was dropped on the tongue and coldness in the mouth, pharynx and chest lasting 30-60 minutes when 5-10 mg was ingested orally (Wei E T, Seid D A, J Pharm Pharmacol. 1983, 35, 110). The inhibition or reversal of icilin-induced shaking behaviors in rodents provides evidence for the utility of TRPM8 antagonists of the formula (I) in treating or preventing a disease, syndrome, disorder or condition in a subject in which the disease, syndrome, disorder or condition is affected by the modulation of TRPM8 receptors.
Male Sprague Dawley rats (225-450 g, Charles River Labs, n=4-6/treatment) were used to evaluate the ability of selected compounds of the formula (I) to reverse icilin-induced “wet-dog” shakes. Icilin was administered in PEG-400 or 10% solutol/H2O, at 1.0 or 3.0 mg/kg, i.p. and spontaneous “wet-dog” shakes (WDS) were counted 10-20 minutes post-icilin. […] Results are presented as a percent inhibition of shakes, which was calculated as [1−(test compound WDS count/vehicle WDS count)]×100.

[2] = test system: icilin-induced “wet-dog” shakes; assay: Inhibition of Icilin-Induced “Wet-Dog” Shakes in Rats; assay type: in vivo; conditions: percent inhibition of wet-dog shakes; rat; 30 mg/kg p.o., 10% solutol, 2 h pre-icilin
Description: as §1
Male Sprague Dawley rats ([…], Charles River Labs, n=6-9/treatment) were used to evaluate the ability of selected compounds of the formula (I) to block icilin-induced “wet-dog” shakes (WDS). […] Icilin was administered in PEG-400 or 10% solutol/H2O, at 1.0 or 3.0 mg/kg, i.p. and spontaneous “wet-dog” shakes were counted 10-20 minutes post-icilin. Results are presented as a percent inhibition of shakes, which was calculated as [1−(test compound WDS count/vehicle WDS count)]×100.

T1 sequence (Q1A7N1 1-1104): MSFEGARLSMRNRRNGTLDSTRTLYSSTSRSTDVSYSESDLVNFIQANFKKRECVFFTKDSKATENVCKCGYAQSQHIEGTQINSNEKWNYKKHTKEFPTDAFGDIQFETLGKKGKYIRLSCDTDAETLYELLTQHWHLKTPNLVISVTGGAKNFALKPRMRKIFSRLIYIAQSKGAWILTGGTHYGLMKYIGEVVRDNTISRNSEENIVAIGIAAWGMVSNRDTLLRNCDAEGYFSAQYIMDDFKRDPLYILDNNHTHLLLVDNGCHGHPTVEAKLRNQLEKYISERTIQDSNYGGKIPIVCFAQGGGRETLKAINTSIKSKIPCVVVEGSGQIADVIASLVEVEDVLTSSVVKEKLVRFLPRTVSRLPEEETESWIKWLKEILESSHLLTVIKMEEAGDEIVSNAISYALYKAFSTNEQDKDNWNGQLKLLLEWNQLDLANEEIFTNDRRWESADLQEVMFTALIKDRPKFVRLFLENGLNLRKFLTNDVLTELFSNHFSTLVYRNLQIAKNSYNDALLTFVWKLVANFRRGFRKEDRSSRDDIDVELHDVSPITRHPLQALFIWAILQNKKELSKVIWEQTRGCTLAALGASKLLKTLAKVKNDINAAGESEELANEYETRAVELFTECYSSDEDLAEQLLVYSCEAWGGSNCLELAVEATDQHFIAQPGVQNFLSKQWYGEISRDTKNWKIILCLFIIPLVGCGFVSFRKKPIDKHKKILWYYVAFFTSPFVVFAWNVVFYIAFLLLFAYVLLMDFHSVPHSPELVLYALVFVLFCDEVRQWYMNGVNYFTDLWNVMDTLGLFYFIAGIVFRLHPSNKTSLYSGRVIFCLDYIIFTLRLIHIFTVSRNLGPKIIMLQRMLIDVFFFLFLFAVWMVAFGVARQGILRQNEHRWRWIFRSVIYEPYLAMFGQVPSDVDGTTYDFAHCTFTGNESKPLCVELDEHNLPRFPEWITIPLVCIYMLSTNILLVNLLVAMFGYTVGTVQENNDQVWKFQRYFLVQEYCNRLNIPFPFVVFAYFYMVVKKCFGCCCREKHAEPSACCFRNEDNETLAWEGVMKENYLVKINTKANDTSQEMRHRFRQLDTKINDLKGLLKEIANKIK

| Structure (SMILES) | % Inh @ 0.5 μM (canine TRPM8; canine TRPM8 HEK293, icilin) | IC50 (canine TRPM8) | inhibition at 0.2 µM (canine TRPM8; HEK293, 0.2 μM compound, canine TRPM8 HEK293, icilin) | inhibition at 0.5 µM (canine TRPM8; canine TRPM8 HEK293, icilin) | % Inh @ 0.2 μM (canine TRPM8; 0.2 μM compound, canine TRPM8 HEK293, icilin, 0.2 µM) | % Inh [1] | % Inh ([1]; 30 mg/kg) | % Inh [2] |
| --- | --- | --- | --- | --- | --- | --- | --- | --- |
| O=C(C(Nc1ccccc1F)c1ccc(C(F)(F)F)cc1)N1CCCC1c1cccc(F)c1 (stereo not drawn) [Cpd 134] | 98% | 14 nM and 8.7 nM | – | – | – | 75% ± 11% | – | – |
| O=C(C(Nc1ccccc1F)c1ccc(C(F)(F)F)cc1)N1CCC[C@H]1c1ccccc1F (stereo partly drawn) [Cpd 150, 2-(2-Fluoro-phenylamino)-1-[(2S)-2-(2-fluoro-phenyl)-pyrrolidin-1-yl]-2-(4-trifluoromethyl-phenyl)-ethanone] | – | 12 nM and 4 nM | 89% | 100% | – | 63% ± 15% | – | – |
| O=C(C(Nc1ccccc1F)c1ccc(C(F)(F)F)cc1)N1CCCC1c1ccccc1 (single isomer, unassigned) [Cpd 128] | – | 4.6 nM | – | 100% | – | – | 56% ± 19% | – |

Further lines, with some results ahead:

| % Inh @ 0.5 μM (canine TRPM8; canine TRPM8 HEK293, icilin) | IC50 (canine TRPM8) | inhibition at 0.2 µM (canine TRPM8; HEK293, 0.2 μM compound, canine TRPM8 HEK293, icilin) | inhibition at 0.5 µM (canine TRPM8; canine TRPM8 HEK293, icilin) | % Inh @ 0.2 μM (canine TRPM8; 0.2 μM compound, canine TRPM8 HEK293, icilin, 0.2 µM) | Structure (SMILES) | % Inh [1] | % Inh ([1]; 30 mg/kg) | % Inh [2] |
| --- | --- | --- | --- | --- | --- | --- | --- | --- |
| 98% | 5 nM | – | – | – | O=C(C(Nc1ccccc1F)c1ccc(Cl)cc1)N1CCCC1c1ccccc1F (single isomer, unassigned) [Cpd 158] | 86% ± 7% | – | – |
| – | 17 nM | – | 99% | – | O=C(C(Nc1ccccc1F)c1ccc(C(F)(F)F)cc1)N1CCCC1c1ccccc1Cl (single isomer, unassigned) [Cpd 155] | 79% ± 13% | – | – |
| 101% | 43 nM | – | – | – | O=C(C(Nc1ccccc1F)c1ccc(C(F)(F)F)cc1)N1CCCC1c1ccccc1 (single isomer, unassigned) [Cpd 129] | – | 50% ± 21% | – |
| 100.72% | 7.2 nM and 5 nM | – | – | 103% | O=C(C(Nc1ccccc1F)c1ccc(C(F)(F)F)cc1)N1CCCC1c1ccccc1F (single isomer, unassigned) [Cpd 151] | – | 99% ± 1% | 100% |
